Measured values as given in patent US20250332143A1, “COMPOSITION COMPRISING ALOX5 INHIBITOR FOR PREVENTING OR TREATING SARCOPENIA” (PLUTO Inc., priority 2022, published 2025).
“Also recorded” adds a separate entry of the source.

Legend:
human myotubes = assay: Dexamethasone-induced atrophy of human skeletal myotubes, H&E, diameter; format: cell-based; settings: dexamethasone co-treatment
Method: Human-derived myoblasts were purchased from Thermo-Fisher Scientific (USA). Myoblasts were thawed using a water bath, centrifuged at 180 g for 5 min at room temperature, and washed with 20 mL DM. Myoblasts were then resuspended in DM and seeded in a 12-well plate at a density of 4.8×10^4 cells/well. After 48 hours, myoblasts were treated with compounds of interest for 24 hours. Myotubes were stained with H&E. After light microscopy analysis of DIC captured images (Olympus CKX41), myotubes were measured using ImageJ 1.48 software (National Institutes of Health, USA).

Atrogin-1 and MuRF-1 = assay: qPCR of muscle atrophy regulators in Dex-treated C2C12 myotubes; format: cell-based, mouse
Method: (§1) C2C12 murine skeletal muscle myoblasts were obtained from Koram Biotech (Republic of Korea). The cells were maintained in DMEM growth medium supplemented with 10% FBS, 1% penicillin, and streptomycin. When myoblasts proliferated to approximately 90%, they were differentiated into muscle fibers by treating them with DMEM differentiation medium supplemented with 2% HS, 1% penicillin, and streptomycin for 96 hours. Differentiated muscle fibers were treated with 10 μM Dex for 24 hours to induce sarcopenia. To evaluate the degree of differentiation of muscle cells, differentiating myoblasts were treated with the corresponding compound in differentiation medium for 24 or 48 hours.
For quantitative real-time PCR, transcript levels of genes of interest were analyzed using the StepOnePlus real-time PCR system (Applied Biosystems, UK). Total RNA was reverse transcribed to prepare cDNA using AccuPower® RT PreMix (Bioneer Corporation). The obtained cDNA was subjected to real-time PCR according to the manufacturer's instructions with the following changes. PCR was performed in triplicate in a total volume of 20 μL 2× Power SYBR Green PCR Master Mix (Enzynomics, Republic of Korea) containing 200 nM (final concentration) of each specific primer and 1 μL of cDNA synthesized from 1 μg of total RNA. PCR amplification consisted of incubating the mixture at 95° C. for 10 minutes, followed by 40 cycles of denaturation, annealing, and extension. Denaturation was performed at 95° C. for 15 s, annealing was performed at 60° C. for 1 min, and extension was performed at 72° C. for 20 s with fluorescence detection at 72° C. after each cycle. After the final cycle, melting point analysis of all samples was performed within the range of 60 to 95° C. using continuous fluorescence detection. Specific cDNA samples were included in each run and used as reference material for comparison between runs. The expression level of GAPDH was used to calculate and normalize the expression levels of all other genes. Results were expressed as relative expression levels for each gene. The synthesized cDNA was amplified by quantitative real-time PCR (qRT-PCR) or standard PCR.

[1] = test system: Dex-treated C2C12 myotubes; assay: Dex-induced myotube atrophy, myosin heavy chain immunostaining, myotube diameter; format: cell-based, mouse; settings: 10 μM Dex 24 h
Method: as §1
Muscle fibers were stained using immunochemical staining using myosin heavy chain antibody. Specifically, the muscle fibers were rinsed three times with PBS and then fixed with a 3.7% formaldehyde solution. After rinsing with PBS, a transparency process was performed with 0.2% TritonX-100 solution, and additional rinsing was performed with PBS. They were blocked with 1% bovine serum albumin solution (1% BSA in PBS-T) and incubated with primary antibody overnight at 4° C. After washing with PBS, the secondary antibody was treated for 1 hour. Afterwards, the myotubes were counterstained with 1 μM DAPI in PBS. Fluorescence images of stained myotubes in five different areas were obtained using a DMI 3000 B microscope (Leica, Germany) and analyzed using ImageJ 1.52 software (National Institutes of Health, Bethesda, MD, USA). Myotubes were classified as myosin heavy chain positive cells containing four or more nuclei, and the diameter of muscle fibers containing four or more nuclei was measured.

Alox5 = Alox5 expression in Dex-treated myotubes (qPCR, Western blot); format: cell-based, mouse; settings: qPCR and Western blotting
Method: as §1
The concentration of intracellular protein was measured using the Bradford assay (Bio-Rad, USA, CA), and electrophoresis was performed by loading on 10% and 12% polyacrylamide gels. […] Band intensity was measured using ImageJ 1.52 software (National Institutes of Health, USA), and intracellular protein was normalized to α-tubulin.
For quantitative real-time PCR, transcript levels of genes of interest were analyzed using the StepOnePlus real-time PCR system (Applied Biosystems, UK). […] Denaturation was performed at 95° C. for 15 s, annealing was performed at 60° C. for 1 min, and extension was performed at 72° C. for 20 s with fluorescence detection at 72° C. after each cycle. […]

LTB4 = LTB4 ELISA in C2C12 muscle fibers; format: cell-based, mouse; settings: Dex-treated myotubes
Method: as §1, with “48 hours. An LTB4 ELISA kit was purchased from MyBioSource (CA, USA). The concentrations of LTB4 in skeletal muscles and cell lysates were measured by the enzyme-linked […] method according to the manufacturer's instructions. Samples (100 μL) were maintained at room temperature (RT) for 1 hour in 96 wells with polyclonal LTB4 antibody. Afterwards, an enzymatic reaction was performed to stop the process, and the absorbance was measured at 405 nm.” for “48 hours.”

FoxO3a = assay: Western blot of FoxO3a phosphorylation and Atrogin-1 in Dex-treated myotubes; format: cell-based, mouse
Method: C2C12 murine skeletal muscle myoblasts were obtained from Koram Biotech (Republic of Korea). The cells were maintained in DMEM growth medium supplemented with 10% FBS, 1% penicillin, and streptomycin. When myoblasts proliferated to approximately 90%, they were differentiated into muscle fibers by treating them with DMEM differentiation medium supplemented with 2% HS, 1% penicillin, and streptomycin for 96 hours. Differentiated muscle fibers were treated with 10 μM Dex for 24 hours to induce sarcopenia. To evaluate the degree of differentiation of muscle cells, differentiating myoblasts were treated with the corresponding compound in differentiation medium for 24 or 48 hours. The concentration of intracellular protein was measured using the Bradford assay (Bio-Rad, USA, CA), and electrophoresis was performed by loading on 10% and 12% polyacrylamide gels. Afterwards, the separated proteins were transferred to a PVDF membrane, and the primary antibody used was diluted 1:1000 in TBS-T containing 5% skim milk and incubated overnight at 4° C. Secondary antibodies were diluted 1:2000 and incubated for 35 minutes at room temperature (RT). Band intensity was measured using ImageJ 1.52 software (National Institutes of Health, USA), and intracellular protein was normalized to α-tubulin.

Which “atrophy of human myotubes” value (human myotubes; 24 hours) does the source give for CC(C)OC(=O)C(C(=O)OC(C)C)=C1SC=CS1 [malotilate, Malotilate] here?
The value was “can prevent atrophy”.

What about the mean myotube diameter (human myotubes; human myotubes) of the same compound?
Its mean myotube diameter is “increased”.

And the “proportion of myotubes of larger size” value (human myotubes; human myotubes)?
Its value is “greater proportion”.

And the “Atrogin-1 expression (mRNA, qPCR)” value (Atrogin-1 and MuRF-1)?
The value was “inhibited the upregulation; also recorded: decreased”.

And the “MuRF-1 expression (mRNA, qPCR)” value (Atrogin-1 and MuRF-1)?
Its value is “inhibited the upregulation; also recorded: decreased”.

And the “diameter of muscle fibers (C2C12 myotubes)” value ([1]; zileuton 10 µM, wedelolactone 20 μM (FIGS. 2, 3))?
The value was “recovered”.

And the “myotube atrophy in Dex-treated myotubes” value ([1]; C2C12 myotubes)?
Its value is “inhibited the effect of Dex on myotube atrophy”.

And the Alox5 expression (Alox5)?
Its Alox5 expression is “did not affect”.

What about the LTB4 levels (LTB4) of the same compound?
The LTB4 levels was “lowered”.

What about the “Atrogin-1 expression (Western blot)” value (FoxO3a) of the same compound?
The value was “decrease”.

And the FoxO3a phosphorylation levels (FoxO3a; Western blot)?
The FoxO3a phosphorylation levels was “increased”.
